Results from patent publication US20080227809A1, “Arylalkylamine Vanadium (V) Salts for the Treatment and/or Prevention of Diabetes Mellitus” (GENMEDICA THERAPEUTICS SL, priority 2004, published 2008).

What was measured:
[1] = test system: isolated rat adipocytes; assay: glucose transport (2-deoxyglucose uptake) in isolated rat adipocytes; format: cell-based; conditions: for stimulation of glucose transport at low concentration compared with A and B vanadium salts: 10 μM; for stimulation of glucose transport at low concentration compared with A and B vanadium salts / maximal stimulatory effect on glucose transport, compounds compared: vanadium salts; for maximal stimulatory effect on glucose transport, compounds compared: FIG. 6B; for stimulatory effect on glucose transport in the presence of semicarbazide: 1 mM semicarbazide (SSAO inhibitor)
Method: In order to determine whether salts formed by vanadate and benzylamine could produce an insulin mimetic effect, the effect of increasing concentrations of hexaquis(benzylammonium) decavanadate on glucose transport activity in isolated rat adipocytes was tested. Hexaquis(benzylammonium) decavanadate induced the stimulation of glucose transport which was perceptible from concentrations of 0.5 μM, with a maximal effect observed 2.5 μM and the semimaximal effect above 1 μM. […] The maximum effect provoked by incubation with hexaquis(benzylammonium) decavanadate was greater than that produced by the presence of benzylamine and vanadate in combination (FIG. 1). […] In similar assays, the activity of hexaquis(benzylammonium) decavanadate, pentaquis(benzylammonium) decavanadate and tetraquis(benzylammonium) decavanadate on glucose transport activity in isolated rat adipocytes were analyzed.
To determine the possible insulin mimetic effect of certain vanadium arylalkylamines, the capacity of these compounds to enhance glucose transport in isolated rat adipocytes was tested. Adipose cells from Wistar rats were incubated for 45 minutes in basal conditions (Basal) or in the presence of 100 nM insulin (Ins), and different concentrations of. hexaquis(benzylammonium) decavanadate (B6V10) in the absence or in the presence of 1 mM semicarbazide (SCZ). Subsequently, 2-DG transport was measured over a 5 min. interval.
The effects of the three tested compounds (B6V10, B5V10 and B4V10) were compared. Adipose cells from Wistar rats were incubated for 45 minutes in basal conditions (Basal) or in the presence of 100 nM insulin (Ins), and different concentrations of. decavanadate (V10), hexaquis(benzylammonium) decavanadate (B6V10), pentaquis(benzylammonium) decavanadate (B5V10) or tetraquis(benzylammonium) decavanadate (B4V10) in the absence or in the presence of 1 mM semicarbazide (SCZ). 2-DG transport was measured over 5 min. intervals. […] The stimulation of all three compounds on glucose transport was blocked in the presence of semicarbazide.
In additional experiments, compounds shown in FIG. 6A (named 2-(4-fluoro-phenyl)-ethylamine (compound A), 3-phenyl-propylamine (compound B), 4-fluoro-benzylamine (compound C) and 4-phenyl-butylamine (compound D)) were assessed using the experimental methods set forth above for the capacity to stimulate 2-DG uptake in isolated rat adipocytes. Adipose cells from Wistar rats were incubated for 45 minutes in basal conditions (Basal) or in the presence of 100 nM insulin (Ins), and different concentrations of vanadium salts of 2-(4-fluoro-phenyl)-ethylamine (compound A), 3-phenyl-propylamine (compound B), 4-fluoro-benzylamine (compound C) and 4-phenyl-butylamine (compound D). 2-DG transport was measured over 5 min.
(§1) The effects of incubation with semicarbazide or phosphatidylinositol 3-kinase inhibitors were also investigated. Adipose cells were incubated with B6V10 (25 μM, 45 min) in the absence or presence of wortmannin (2 μM, 45 min), LY294002 (10 μM, 45 min) or semicarbazide (1 mM, 45 min) and thereafter 2-deoxyglucose uptake was determined during 5 min. Activation of protein kinase B phosphorylation induced by B6V10 was blocked by semicarbazide and it was not observed by decavanadate. In addition, phosphatidylinositol 3-kinase inhibitors wortmannin and LY294002 blocked B6V10-induced glucose transport (FIG. 7E).

[2] = test system: streptozotocin-induced diabetic rats; assay: chronic subcutaneous (osmotic minipump) treatment, glycemia of streptozotocin (45 mg/kg) diabetic rats; format: in vivo, rat; conditions: 2.5 μmol/kg/day subcutaneous by osmotic minipumps, about two weeks
Method: Insulin concentrations were determined before and after treatment.
The effect of chronic administration of hexaquis(benzylammonium) decavanadate on glycemia from diabetic rats was determined. Thus, diabetes was induced in rats by intravenous administration of streptozotocin, which destroys the β-pancreatic cells that produce insulin.
(§2) Chronic in vivo efficacy of B6V10 was evaluated in streptozotocin-induced diabetic rats and in db/db mice. Streptozotocin-induced (45 mg/kg) diabetic rats were subcutaneously treated with hexaquis(benzylammonium) decavanadate (2.5 μmol/kg) (B6V10, solid squares, FIG. 8A) or with decavanadate (2.5 μmol/kg) (V10, open circles, FIG. 8A) delivered subcutaneously by osmotic minipumps implanted in the dorsal region. Diabetic rats were also sham-operated (untreated, solid diamonds, FIG. 8A). […] These experiments were repeated using an oral administration protocol. Streptozotocin-induced (45 mg/kg) diabetic rats were orally treated with hexaquis(benzylammonium) decavanadate (5 μmol/kg from day 0 to day 7 and 10 μmol/kg/day from day 7 to day 17) (B6V10, solid squares, FIG. 8B) or received decavanadate (10 μmol/kg) (V10, open circles, FIG. 8B). Nondiabetic rats were also untreated (solid triangles, FIG. 8B).

[3] = test system: streptozotocin-induced diabetic rats; assay: chronic oral treatment, glycemia of streptozotocin (45 mg/kg) diabetic rats; format: in vivo, rat; conditions: for effect on glycemia: daily oral administration, 17 days
Method: The effect of the oral administration of hexaquis(benzylammonium) decavanadate on glycemia from diabetic rats was also studied. Diabetes was induced in rats by intravenous administration of streptozotocin, and subsequently, a hexaquis(benzylammonium) decavanadate or sodium decavanadate unique dose was administered to the rats. […] After seven days of treatment, the dose was increased at 10 μmol/kg/day which was maintained for an additional ten days. […] Thus, glycemia in sodium decavanadate treated rats was approximately 450 mg/dl and glycemia of hexaquis(benzylammonium) decavanadate treated rats was approximately 250 mg/dl.
as §2

[4] = test system: protein kinase B; assay: protein kinase B phosphorylation in isolated rat adipocytes; format: cell-based; conditions: 25 μM
Method: Isolated fat cells were disrupted for total membrane preparation by hypo-osmotic lysis in a 20 mM HES buffer and an antiprotease and antiphosphatase cocktail as reported by Abella et al. (2003, Diabetes 52: 1004-1013). Protein concentrations were determined by the Bradford method (Bradford, 1976, Anal. Biochem. 72: 248-254) with gamma-globulin as protein concentration standard. Immunoprecipitation and immunoblot assays were performed as previously described by Abella et al. (2004, Id.) with the use of a monoclonal antiphosphotyrosine antibody for the immunoprecipitation and an anti-insulin receptor antibody for immunobloting, respectively. SDS-polyacrylamide gel electrophoresis was performed on membrane proteins following conventional procedures. Proteins were transferred to Immobilon and immunoblotting was performed as reported by Castello et al. (1994, J. Biol. Chem. 269: 5905-5912).
The mechanism of action of B6V10 was investigated in isolated rat adipocytes. Adipose cells from Wistar rats were incubated for different times in the presence of 25 μM hexaquis(benzylammonium) decavanadate (B6V10). Cells were also incubated in the presence of insulin (100 nM, 45 min), decavanadate (25 μM, 45 min) or semicarbazide (1 mM, 45 min). Subsequently, 2-deoxyglucose uptake (results shown in FIG. 7A), tyrosine phosphorylation of insulin receptor (FIG. 7B), phospho-Thr^308-protein kinase B (FIG. 7C) and phospho-Ser^473-protein kinase B (FIG. 7D) was measured. […] The phosphorylation of protein kinase B induced by B6V10 was parallel to activation of glucose transport (FIGS. 7C and 7D).
as §1

[5] = test system: streptozotocin-induced diabetic rats with undetectable circulating insulin; conditions: 2.5 μmol/kg subcutaneous by osmotic minipumps, streptozotocin 100 mg/kg
Method: Male Wistar rats weighting 180-220 g were purchased from Harlan (Interfauna Ibèrica S.A., Spain). Diabetes was induced by a single intraperitoneal injection of a freshly prepared solution of streptozotocin (in some studies the dose was 45 mg/kg body weight and in some others 100 mg/kg body weight dissolved in 50 mM citrate buffer, pH 4.5). Only diabetic animals with glycemia above 300 mg/dl were used. The animals were housed in animal quarters at 22° C. with a 12 h light/12 h dark cycle and were fed ad libitum. All procedures used were approved by the animal ethical committee of the University of Barcelona, Spain.
Osmotic minipumps delivering B6V10 (2.5 μmol/kg body wt/day) or decavanadate (2.5 μmol/kg body wt/day) were implanted subcutaneously in diabetic rats anaesthetised by ketamine hydrochloride (95 mg/kg) and xylasine (10 mg/kg). […] Glycemia was measured on arterio-venous blood collected from the tail vessels at 09:00 am for two weeks, before the administration of vanadate. Insulin concentrations were determined before and after treatment. In another set of experiments, B6V10 was orally administered at a single dose of 5 μmol/kg/day during the first week and 10 μmol/kg/day during 2 additional weeks by gastric gavage. A control group received the corresponding decavanadate salt in the absence of benzylamine. At the end of the treatment, animals were sacrificed and the liver, fat pad, heart and lung were kept at −80° C. and the plasma at −20° C. until their use for in vitro analysis.
In glucose tolerance tests and in chronic treatments, circulating glucose concentrations were determined by a rapid glucose analyser (Accutrend® Sensor Comfort, Roche, Basel. Switzerland). Plasma insulin (IRI) concentration was determined by ELISA method using a kit obtained from Crystal Chem. Inc. (Downers Grove, Ill.).
To this end, rats were made diabetic by the injection of a large dose of streptozotocin (100 mg/kg) that eliminates β-pancreatic insulin content.

[6] = isolated rat adipocytes, 45 min incubation

NCCCc1ccccc1 [compound B, 3-phenyl-propylamine]
stimulation of glucose transport [1, 6]: markedly stimulated

NCCCCc1ccccc1 [compound D, 4-phenyl-butylamine]
stimulation of glucose transport at low concentration compared with A and B vanadium salts [1]: higher
stimulation of glucose transport [1, 6]: markedly stimulated
maximal stimulatory effect on glucose transport, compounds compared [1]: similar

pentaquis(benzylammonium) decavanadate [Example B5V10]
stimulatory effect on glucose transport in the presence of semicarbazide [1]: blocked
stimulatory effect on glucose transport in the presence of semicarbazide ([1]; listed as pentaquis(benzylammonium) decavanadate): inhibited
stimulation of glucose transport [1, 6]: pronounced stimulation

NCc1ccc(F)cc1 [compound C, 4-fluoro-benzylamine]
stimulation of glucose transport at low concentration compared with A and B vanadium salts [1]: higher
stimulation of glucose transport [1, 6]: markedly stimulated
maximal stimulatory effect on glucose transport, compounds compared [1]: similar

tetraquis(benzylammonium) decavanadate [Example B4V10]
stimulatory effect on glucose transport in the presence of semicarbazide [1]: blocked
stimulatory effect on glucose transport in the presence of semicarbazide ([1]; listed as tetraquis(benzylammonium) decavanadate): inhibited
stimulation of glucose transport [1, 6]: pronounced stimulation

sodium decavanadate [reference compound]
stimulation of glucose transport ([1]; alone at 5 to 50 μM): did not stimulate glucose transport
effect on glycemia [2]: did not modify substantially its glycemia
effect on glycemia ([2]; listed as V10): did not alter glycemia
effect on glycemia [3]: not affected substantially
effect on glycemia ([3]; listed as V10): did not alter glycemia
glycemia ([3]; oral, after dosage increase to 10 μmol/kg/day): approximately 450 mg/dl
protein kinase B phosphorylation [4]: not observed
effect on glycemia [5]: did not show any change in circulating glucose

NCCc1ccc(F)cc1 [compound A, 2-(4-fluoro-phenyl)-ethylamine]
stimulation of glucose transport [1, 6]: markedly stimulated
